# Experimental data taken from ChEMBL document CHEMBL5113465, “Design, synthesis and evaluation of alpha lipoic acid derivatives to treat multiple sclerosis-associated central neuropathic pain” (Bioorg Med Chem, 2022).
# Legend:
# [1] = Stability of compound in pH 6.8 intestinal enzyme-free fluid assessed as decomposition measured within 20 mins by HPLC analysis; type: ADME; settings: buffer, pH 6.8, 20 min
# [2] = Octanol/water partition coefficient, log P of the compound by HPLC analysis; type: physicochemical
# [3] = Stability of compound in pH 1.5 gastric enzyme-free fluid assessed as decomposition measured within 20 mins by HPLC analysis; type: ADME; settings: buffer, pH 1.5, 20 min
# [4] = Aqueous solubility of compound; type: physicochemical
# [5] = Half life in pH 6.8 intestinal enzyme-free fluid assessed as parent compound remaining neutralized with 0.1 N triethylamine solution at 20 mins interval for 3 hrs by HPLC analysis; type: ADME
# [6] = Half life in pH 1.5 gastric enzyme-free fluid assessed as parent compound remaining neutralized with 0.1 N triethylamine solution at 20 mins interval for 3 hrs by HPLC analysis; type: ADME
# [7] = Stability in mouse plasma at 1 to 500 ppm measured within 1 min by LC-MS analysis; type: ADME, cell-free; settings: dose 1-500 ppm
# [8] = Apparent permeability in human Caco-2 cells measured after 15 mins by LC-MS analysis; type: ADME, cell-based
# [9] = Half life in mouse plasma at 0.1 to 50 ppm by LC-MS analysis; type: ADME, cell-free; settings: dose 0.1-50 ppm
# [10] = aqueous medium, read-out: solubility
logP [2],"solubility [4, 10] [µM]",half-life [5] [h],half-life [6] [h],SMILES,also measured
–,–,> 2,> 2,Cc1oc(=O)oc1COC(=O)CCCC[C@@H]1CCSS1,Papp at 0.25 h [8]: 15.9 ×10⁻⁶ cm/s
2.03,< 10,> 2,> 2,O=C(CCCC[C@@H]1CCSS1)OCc1cc(=O)c(O)co1,–
–,–,> 2,> 2,O=C(CCCC[C@@H]1CCSS1)OC(CO)CO,–

# Second part, the molecule before the results:
SMILES,logP [2],"solubility [4, 10] [µM]",half-life [5] [h],half-life [6] [h],also measured
O=C(CCCC[C@@H]1CCSS1)OCCN1CCOCC1,2.64,< 10,–,–,Drug degradation [1]: Active; Drug degradation [3]: Active
O=C(CCCC[C@@H]1CCSS1)OC[C@H]1OC(O)[C@H](O)[C@@H](O)[C@@H]1O (some centres undefined),0.94,< 2000,–,–,–
CN1CCN(CCOC(=O)CCCC[C@@H]2CCSS2)CC1,–,–,> 2,> 2,–
O=C(CCCC[C@@H]1CCSS1)OCCOCCOCCO,–,–,> 2,> 2,–
Cl.O=C(CCCC[C@@H]1CCSS1)OCCN1CCOCC1,–,–,–,–,solubility ([4]; buffer): Soluble; Stability [7]: Unstable
O=C(CCCC[C@@H]1CCSS1)O[C@H]1[C@H](O)[C@@H](CO)OC(O)[C@@H]1O (some centres undefined),0.31,> 10000,–,–,half-life [9]: 1.5 h
